Laboratory results from patent US20150099721A1, “TREATING CANCER WITH HSP90 INHIBITORY COMPOUNDS” (Synta Pharmaceuticals Corp., priority 2012, published 2015).
“Also recorded” adds a separate entry of the source.

Experiments:
[1] = tested on: SLC34A2-ROS expressing HCC78 NSCLC cells; experiment: Cell viability (Cell Titer-Glo) in HCC78 cells; format: cell-based, human; details: for IC50: Homo sapiens, 72 hr exposure (FIG. 1A), read-out: IC50, loss of HCC78 cell viability; for cells killed by single agent: drug on its own (FIG. 1C)
Method: (§1) Human HCC78 NSCLC cells and human TPC-1 thyroid cancer cells were obtained from Dr. Steve Morris (St. Jude's) and grown in RPMI in the presence of fetal bovine serum (10%), 2 mM L-glutamine and antibiotics (100 IU/ml penicillin and 100 μg/ml streptomycin) purchased from Sigma Aldrich. Cells were maintained at 37° C., 5% CO2 atmosphere.
(§2) Cell viability was measured using the Cell Titer-Glo assay (Promega). In brief, cells were plated in 96-well plates in triplicate at optimal seeding density (determined empirically for each cell line) and incubated at 37° C., 5% CO2 atmosphere for 24 hr prior to the addition of drug or vehicle (0.3% DMSO) to the culture medium. At the end of the assay, Cell Titer-Glow was added to the wells per manufactures recommendation, shaken for two minutes and incubated for 10 minutes at room temperature. Luminescence (0.1 sec) was measured with a Victor II microplate reader (Perkin Elmer) and the resulting data were used to calculate cell viability, normalized to vehicle control.
(§3) Chromosomal rearrangements involving ROS kinase have been reported in several tumor types, including non-small cell lung cancer (NSCLC) and glioblastoma. […] See, e.g., Ting-Lei Gu et al, PLoS One. 2011; 6(1):e15640. To determine if inhibition of Hsp90 affects the activity of ROS fusion kinases and viability of cells driven by such fusions, SLC34A2-ROS expressing HCC78 NSCLC cells were treated with ganetespib and both viability and protein activity was assessed. […] See, e.g., Chenguang Li et al, PLoS One. 2011; 6(11):e28204. […] To determine if ganetespib affects the constitutive activity of ROS, HCC78 cells were treated with ganetespib for 24 hr and the phosphorylation of ROS was assayed by Western blot. […] In addition to SLC34A2-ROS, other ROS chimeras have been identified including CD74-ROS and FIG-ROS. Show in FIG. 1D, Ba/F3 cells stably expressing either CD74-ROS or FIG-ROS were treated with ganetespib for 24 hr and activity of ROS was determined by Western blot.

[2] = tested on: cancer cells driven by oncogenic ROS1 fusion; experiment: Viability of cancer cells driven by oncogenic ROS1 fusion (FIGS. 3-4); format: cell-based; details: FIG. 3, FIG. 4
Method: as §2

[3] = tested on: CD74-ROS; experiment: Western blot of ROS phosphorylation in Ba/F3 cells expressing CD74-ROS; format: cell-based; details: 24 hr, 100 nM (FIG. 1D)
Description: (§4) Cells, treated with compound for 24 hr, were lysed in RIPA buffer (CST, Danvers, Mass., USA) on ice and clarified by centrifugation. Equal amounts of proteins were resolved by SDS-PAGE and immunoblotted with indicated antibodies (CST). The antigen-antibody complex was visualized and quantitated using an Odyssey system (LI-COR, Lincoln, Nebr., USA).
as §3

[4] = tested on: CCDC6-RET; experiment: Western blot in TPC-1 cells (CCDC6-RET, ERK, PARP); format: cell-based, human; details: 24 hr (FIG. 2)
Method: as §1, §4
(§5) Recently, fusions of the RET kinase have also been detected in NSCLC. See, e.g., Fei Li et al, Cell Research (2012), 1-4. One such fusion, CCDC6-RET, was determined to be present in ˜1% of lung adenocarcinomas from never smokers. To investigate whether ganetespib modulates the activity and stability of RET fusions, CCDC6-RET expressing TPC-1 thyroid cancer cells were used as a model.

[5] = tested on: FIG-ROS; experiment: Western blot of ROS phosphorylation in Ba/F3 cells expressing FIG-ROS; format: cell-based; details: 24 hr, 100 nM (FIG. 1D)
Description: as §4, §3

[6] = tested on: ROS1 fusion protein; experiment: Degradation of ROS1 fusion protein (FIG. 5); format: cell-based
Description: as §4

[7] = tested on: ROS (SLC34A2-ROS) in HCC78 cells; experiment: Western blot of ROS phosphorylation in HCC78 cells; format: cell-based, human; details: 24 hr, 250 nM (FIG. 1B)
Description: as §4, §3

[8] = tested on: CCDC6-RET expressing TPC-1 thyroid cancer cells; experiment: Cell viability in TPC-1 cells; format: cell-based, human; details: 72 hr (FIG. 2A, FIG. 7)
Method: as §1, §2, §5

In the case of C[C@@H](Oc1cc(-c2cnn(C3CCNCC3)c2)cnc1N)c1c(Cl)ccc(F)c1Cl [crizotinib, reference compound], the IC50 [1] is reported as 1040 nM, the “cells killed by single agent” value [1] is reported as “approximately 50%” and the “viability of cancer cells driven by oncogenic ROS1 fusion” value [2] is reported as “inhibited viability”.
With CC(C)c1cc(-c2nnc(O)n2-c2ccc3c(ccn3C)c2)c(O)cc1O [ganetespib, 3-(2,4-DIHYDROXY-5- ISOPROPYL-PHENYL)-4-(1- METHYL-INDOL-5-YL)-5- HYDROXY-[1,2,4] TRIAZOLE (GANETESPIB)] the IC50 [1] was 17 nM, the “cells killed by single agent” value [1] was “approximately 50%” and the “activity (phosphorylation) of CD74-ROS” value [3] was “effectively reduces the activity”. For the same compound, the ERK activity [4] was “deactivation of ERK”, the PARP cleavage [4] was “cleavage of the pro-apoptotic protein PARP” and the “degradation of total and phosphorylated CCDC6-RET” value [4] was “potently induced the degradation”. For the same compound, the “activity (phosphorylation) of FIG-ROS” value [5] was “effectively reduces the activity”, the “degradation of ROS1 fusion protein” value [6] was “leads to degradation of ROS1 fusion protein” and the “phosphorylation of ROS” value [7] was “significant dephosphorylation of ROS”. The “cell death / viability of TPC-1 cells” value [8] was “resulting in cell death; also recorded: significantly inhibited the viability” and the “viability of cancer cells driven by oncogenic ROS1 fusion” value [2] was “inhibited viability; also recorded: significantly inhibited the viability of more cancer cells”.
